Patent US20260042762A1 (Kymera Therapeutics, Inc., priority 2018, published 2026)
Counter-ions that a name gives are not always drawn. Like-named read-outs stand apart in the source and are kept apart here.

Molecular target: T1, MerTK (Homo sapiens, UniProt Q12866)
T1 construct: endogenous in cells; host or cells: Jurkat cells
T1 sequence (Q12866 21-999): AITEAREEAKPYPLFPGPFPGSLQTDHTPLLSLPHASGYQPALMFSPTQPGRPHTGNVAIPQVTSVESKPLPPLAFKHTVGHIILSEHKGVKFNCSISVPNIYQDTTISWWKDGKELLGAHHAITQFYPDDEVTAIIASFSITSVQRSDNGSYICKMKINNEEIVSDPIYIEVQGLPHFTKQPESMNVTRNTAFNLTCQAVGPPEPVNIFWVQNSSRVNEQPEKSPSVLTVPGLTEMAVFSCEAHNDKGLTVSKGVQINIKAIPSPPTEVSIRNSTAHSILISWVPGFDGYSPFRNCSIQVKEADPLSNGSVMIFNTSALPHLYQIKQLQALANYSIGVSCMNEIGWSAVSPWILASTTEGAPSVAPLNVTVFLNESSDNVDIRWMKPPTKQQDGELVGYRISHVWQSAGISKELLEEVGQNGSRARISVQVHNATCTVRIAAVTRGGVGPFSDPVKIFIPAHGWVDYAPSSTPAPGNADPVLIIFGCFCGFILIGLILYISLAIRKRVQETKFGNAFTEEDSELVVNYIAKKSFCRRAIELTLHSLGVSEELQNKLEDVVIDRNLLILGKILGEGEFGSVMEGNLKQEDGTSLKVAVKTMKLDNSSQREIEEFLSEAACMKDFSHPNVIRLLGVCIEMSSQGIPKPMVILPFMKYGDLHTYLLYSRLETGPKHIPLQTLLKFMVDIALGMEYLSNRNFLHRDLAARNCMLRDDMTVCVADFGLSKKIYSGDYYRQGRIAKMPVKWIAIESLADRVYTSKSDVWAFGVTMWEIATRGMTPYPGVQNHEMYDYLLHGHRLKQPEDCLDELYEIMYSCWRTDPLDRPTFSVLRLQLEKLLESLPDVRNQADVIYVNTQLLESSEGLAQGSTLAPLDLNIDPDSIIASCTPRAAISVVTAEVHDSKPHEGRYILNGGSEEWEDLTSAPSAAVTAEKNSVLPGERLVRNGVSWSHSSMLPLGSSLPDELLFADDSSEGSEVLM
Experiment: MerTk degradation in Jurkat cells (Western blot)
Format: cell-based
Conditions: 0.001-1 μM, 4 hour-incubation at 37° C., read-out: Jurkat Max % MerTK Degradation
Protocol: Compounds were reconstituted in DMSO to make 10 mM stock solutions. […] Cells were seeded into 6-well plates with about 5×10^6 cells per well. 2 μL of diluted compounds were added to cells to the final concentration of 0.001-1 μM. After a 4 hour-incubation at 37° C., cells were collected into 2 mL Eppendorf tubes and centrifuged at 1,000 rpm for 5 min. The cell pellets were washed with DPBS (1×) once and resuspended in 60 μL RIPA lysis buffer with Halt Protease and Phophatase Inhibitor Cocktail. The cells were lysed on ice for 10 min, then centrifuged at 14,000 rpm for 10 min at 4° C. and the supernatants were collected for western blots.
The protein concentration of cell lysates was quantified with Pierce™ BCA Protein Assay Kit. […] BCA working reagents were prepared by mixing BCA reagent A with reagent B in 50: 1 ratio. 200 μL of the BCA working reagents were added to 25 μL of BCA standard or cell lysates in microplate, and mixed thoroughly on a plate shaker for 30 seconds. After incubation at 37° C. for 30 min, the absorbance of samples at 562 nm were measured with EnVision Plate Reader.
Protein lysates were prepared in NuPAGE™ LDS sample buffer and NuPAGE™ sample reducing agent, and incubated at 95° C. for 5 min. […] The proteins were transferred to low fluorescence PVDF membranes using the Trans-Blot Turbo Transfer System. Membranes were then blocked in Odyssey blocking buffer at RT for 1 h followed by primary incubation at 4° C. overnight. The primary antibodies were MerTK rabbit monoclonal antibody and actin mouse monoclonal antibody. Membranes were washed three times with TBST (1×), and then incubated with IR Dye 800 CW Goat anti-rabbit and IR Dye 700 CW Goat anti-mouse secondary antibodies in 1:10,000 dilution at RT for 1 h. The Western blot images were obtained using Odyssey Imaging System.

Compound | Dmax (Jurkat, 4 h) [%] | Dmax [%]
CN1CCN(Cc2ccc(-c3ccc(CO[C@H]4CCC[C@@H]4NC(=O)c4cc(-c5cnn(CCCCC(=O)NCCCOCCCc6ccc7c(c6)n(C)c(=O)n7C6CCC(=O)NC6=O)c5)cnc4N)cc3)cc2)CC1 (some centres unmarked) [I-39, formic acid] | – | > 50
CCCCNc1ncc2c(-c3ccc(CN4CCN(CCOCCCc5ccc6c(c5)n(C)c(=O)n6[C@H]5CCC(=O)NC5=O)CC4)cc3)cn([C@H]3CC[C@H](O)CC3)c2n1 [I-43, 3-[5-(3-[2-[4-([4-[2-(butylamino)-7-[trans-4-hydroxycyclohexy1]-7H-pyrrolo[2,3-d]pyrimidin-5-yl]phenyl]methyl)piperazin-1-y1]ethoxy]propyl)-3-methyl-2-oxo-2,3-dihydro-1H-1,3-benzodiazol-1-yl]piperidine-2,6-dione; formic acid] | > 50 | –
CCCCNc1ncc2c(-c3ccc(CNCCOCCOCCCc4ccc5c(c4)n(C)c(=O)n5[C@H]4CCC(=O)NC4=O)cc3)cn([C@H]3CC[C@H](O)CC3)c2n1 [I-45, 3-[5-[3-(2-[2-[([4-[2-(butylamino)-7-[trans-4-hydroxycyclohexy1]-7H-pyrrolo[2,3-d]pyrimidin-5-yl]phenyl]methyl)amino]ethoxy]ethoxy)propyl]-3-methyl-2-oxo-2,3-dihydro-1H-1,3-benzodiazol-1-y1]piperidine-2,6-dione; formic acid] | > 50 | –
Cn1c(=O)n([C@H]2CCC(=O)NC2=O)c2ccc(CCCOCCOCCOCCNCc3ccc(-c4cn([C@H]5CC[C@H](O)CC5)c5nc(NCCC(F)(F)F)ncc45)cc3)cc21 [I-47, 3-[3-methyl-2-oxo-5-[1-(4-[7-[trans-4-hydroxycyclohexy1]-2-[(3,3,3-trifluoropropyl)amino]-7H-pyrrolo[2,3-d]pyrimidin-5-yl]phenyl)-5,8,11-trioxa-2-azatetradecan-14-y1]-2,3-dihydro-1H-1,3-benzodiazol-1-yl]piperidine-2,6-dione] | > 50 | –
CCCCNc1ncc2c(-c3ccc(CN4CCN(CCOCCOCCCc5ccc6c(c5)n(C)c(=O)n6[C@H]5CCC(=O)NC5=O)CC4)cc3)nn([C@H]3CC[C@H](O)CC3)c2n1 [I-50, 3-[5-[3-(2-[2-[4-([4-[6-(butylamino)-1-[trans-4-hydroxycyclohexyl]-1H-pyrazolo[3,4-d]pyrimidin-3-yl]phenyl]methyl)piperazin-1-yl]ethoxy]ethoxy)propyl]-3-methyl-2-oxo-2,3-dihydro-1H-1,3-benzodiazol-1-y1]piperidine-2,6-dione; formic acid] | > 50 | –
CCCCNc1ncc2c(-c3ccc(CNCCCCOCCCCc4ccc5c(c4)n(C)c(=O)n5[C@H]4CCC(=O)NC4=O)cc3)cn([C@H]3CC[C@H](O)CC3)c2n1 [I-53, 3-[5-(4-[4-[([4-[2-(butylamino)-7-[trans-4-hydroxycyclohexyl]-7H-pyrrolo[2,3-d]pyrimidin-5-yl]phenyl]methyl)amino]butoxy]butyl)-3-methyl-2-oxo-2,3-dihydro-1H-1,3-benzodiazol-1-yl]piperidine-2,6-dione hydrochloride] | > 50 | –

Further lines, with some results ahead:

Dmax (Jurkat, 4 h) [%] | Compound | Dmax [%]
> 50 | CCCCNc1ncc2c(-c3ccc(CN4CCN(CCOCCOCCCc5ccc6c(c5)n(C)c(=O)n6[C@H]5CCC(=O)NC5=O)CC4)cc3)cn([C@H]3CC[C@H](O)CC3)c2n1 [I-42, 3-[5-[3-(2-[2-[4-([4-[2-(butylamino)-7-[trans-4-hydroxycyclohexyl]-7H-pyrrolo[2,3-d]pyrimidin-5-yl]phenyl]methyl)piperazin-1-yl]ethoxy]ethoxy)propyl]-3-methyl-2-oxo-2,3-dihydro-1H-1,3-benzodiazol-1-yl]piperidine-2,6-dione; formic acid] | –
< 20 | CCCCNc1ncc2c(-c3ccc(CN4CCN(CCCc5ccc6c(c5)n(C)c(=O)n6[C@H]5CCC(=O)NC5=O)CC4)cc3)cn([C@H]3CC[C@H](O)CC3)c2n1 [I-44, 3-(5-[3-[4-([4-[2-(Butylamino)-7-[trans-4-hydroxycyclohexyl]-7H-pyrrolo[2,3-d]pyrimidin-5-yl]phenyl]methyl)piperazin-1-yl]propyl]-3-methyl-2-oxo-2,3-dihydro-1H-1,3-benzodiazol-1-y1)piperidine-2,6-dione; formic acid] | –
> 50 | CCCCNc1ncc2c(-c3ccc(CNCCCc4ccc5c(c4)n(C)c(=O)n5[C@H]4CCC(=O)NC4=O)cc3)cn([C@H]3CC[C@H](O)CC3)c2n1 [I-46, 3-(5-[3-[([4-[2-(butylamino)-7-[trans-4-hydroxycyclohexyl]-7H-pyrrolo[2,3-d]pyrimidin-5-yl]phenyl]methyl)amino]propyl]-3-methyl-2-oxo-2,3-dihydro-1H-1,3-benzodiazol-1-yl)piperidine-2,6-dione; formic acid] | –
> 50 | Cn1c(=O)n([C@H]2CCC(=O)NC2=O)c2ccc(CCCOCCOCCNCc3ccc(-c4cn([C@H]5CC[C@H](O)CC5)c5nc(NCCC(F)(F)F)ncc45)cc3)cc21 [I-48, 3-(3-methyl-2-oxo-5-[3-[2-(2-[[(4-[7-[trans-4-hydroxycyclohexyl]-2-[(3,3,3-trifluoropropyl)amino]-7H-pyrrolo[2,3-d]pyrimidin-5-y1]phenyl)methyl]amino]ethoxy)ethoxy]propyl]-2,3-dihydro-1H-1,3-benzodiazol-1-y1)piperidine-2,6-dione] | –
> 50 | CCCCNc1ncc2c(-c3ccc(CN4CCN(CCOCCOCCOCCCc5ccc6c(c5)n(C)c(=O)n6[C@H]5CCC(=O)NC5=O)CC4)cc3)nn([C@H]3CC[C@H](O)CC3)c2n1 [I-49, 3-(5-[3-[2-(2-[2-[4-([4-[6-(butylamino)-1-[trans-4-hydroxycyclohexy1]-1H-pyrazolo[3,4-d]pyrimidin-3-yl]phenyl]methyl)piperazin-1-yl]ethoxy]ethoxy)ethoxy]propyl]-3-methyl-2-oxo-2,3-dihydro-1H-1,3-benzodiazol-1-y1)piperidine-2,6-dione; formic acid] | –
> 50 | Cn1c(=O)n([C@H]2CCC(=O)NC2=O)c2ccc(CCCOCCCOCCCNCc3ccc(-c4cn([C@H]5CC[C@H](O)CC5)c5nc(NCCC(F)(F)F)ncc45)cc3)cc21 [I-51, 3-(3-methyl-2-oxo-5-[3-[3-(3-[[(4-[7-[trans-4-hydroxycyclohexy1]-2-[(3,3,3-trifluoropropyl)amino]-7H-pyrrolo[2,3-d]pyrimidin-5-yl]phenyl)methyl]amino]propoxy)propoxy]propyl]-2,3-dihydro-1H-1,3-benzodiazol-1-y1)piperidine-2,6-dione hydrochloride] | –
> 50 | Cn1c(=O)n([C@H]2CCC(=O)NC2=O)c2cccc(CCCOCCCOCCCNCc3ccc(-c4cn([C@H]5CC[C@H](O)CC5)c5nc(NCCC(F)(F)F)ncc45)cc3)c21 [I-52, 3-(3-methyl-2-oxo-4-[3-[3-(3-[[(4-[7-[trans-4-hydroxycyclohexyl]-2-[(3,3,3-trifluoropropyl)amino]-7H-pyrrolo[2,3-d]pyrimidin-5-yl]phenyl)methyl]amino]propoxy)propoxy]propyl]-2,3-dihydro-1H-1,3-benzodiazol-1-y1)piperidine-2,6-dione hydrochloride] | –
20 to 50 | CCCCNc1ncc2c(-c3ccc(CNCCOCCCc4ccc5c(c4)n(C)c(=O)n5[C@H]4CCC(=O)NC4=O)cc3)cn([C@H]3CC[C@H](O)CC3)c2n1 [I-54, 3-[5-(3-[2-[([4-[2-(butylamino)-7-[trans-4-hydroxycyclohexyl]-7H-pyrrolo[2,3-d]pyrimidin-5-yl]phenyl]methyl)amino]ethoxy]propyl)-3-methyl-2-oxo-2,3-dihydro-1H-1,3-benzodiazol-1-yl]piperidine-2,6-dione] | –
